From the Kinase Knowledgebase extract (Sharma et al. 2016)

Target: PIK3CG (human) (UniProt P48736)
Assay: Inhibition of PIK3CG Kinase Activity

PIK3CG (human), sequence (P48736 whole entry, looked up): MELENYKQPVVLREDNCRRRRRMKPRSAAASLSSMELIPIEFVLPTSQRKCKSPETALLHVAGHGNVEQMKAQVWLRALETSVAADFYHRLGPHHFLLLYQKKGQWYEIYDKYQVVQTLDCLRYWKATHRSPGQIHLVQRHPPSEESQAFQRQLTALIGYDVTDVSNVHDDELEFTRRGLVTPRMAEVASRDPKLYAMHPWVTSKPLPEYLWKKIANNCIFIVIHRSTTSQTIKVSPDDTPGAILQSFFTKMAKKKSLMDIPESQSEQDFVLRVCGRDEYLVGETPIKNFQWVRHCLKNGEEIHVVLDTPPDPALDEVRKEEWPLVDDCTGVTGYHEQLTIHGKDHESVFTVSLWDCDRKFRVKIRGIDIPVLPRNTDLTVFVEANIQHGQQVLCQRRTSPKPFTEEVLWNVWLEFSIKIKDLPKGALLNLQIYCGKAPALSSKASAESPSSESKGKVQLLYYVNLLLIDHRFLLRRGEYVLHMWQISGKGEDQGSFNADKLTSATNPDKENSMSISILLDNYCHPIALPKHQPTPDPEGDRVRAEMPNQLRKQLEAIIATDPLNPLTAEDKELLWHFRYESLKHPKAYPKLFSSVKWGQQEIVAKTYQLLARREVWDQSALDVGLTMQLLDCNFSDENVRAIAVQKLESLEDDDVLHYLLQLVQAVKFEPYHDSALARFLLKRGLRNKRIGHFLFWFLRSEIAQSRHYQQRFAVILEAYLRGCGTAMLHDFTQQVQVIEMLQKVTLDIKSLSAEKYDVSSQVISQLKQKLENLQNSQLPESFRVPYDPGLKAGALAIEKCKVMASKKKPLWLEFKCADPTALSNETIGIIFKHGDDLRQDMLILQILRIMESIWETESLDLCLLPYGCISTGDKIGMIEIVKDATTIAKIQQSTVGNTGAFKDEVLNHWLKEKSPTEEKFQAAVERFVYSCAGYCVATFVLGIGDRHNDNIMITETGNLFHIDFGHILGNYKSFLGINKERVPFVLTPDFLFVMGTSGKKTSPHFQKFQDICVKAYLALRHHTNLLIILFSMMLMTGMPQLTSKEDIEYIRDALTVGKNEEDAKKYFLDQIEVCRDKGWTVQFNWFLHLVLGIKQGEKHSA

Structure (SMILES) | IC50
Cn1nc(-c2cccc(Br)c2OCc2ccccc2F)c2cnc(N)nc21 | < 2000 nM
CNS(=O)(=O)c1cc(-c2nn(C)c3nc(N)ncc23)c(OC)cc1OC | < 2000 nM
Cn1nc(-c2cc(C(F)(F)F)ccc2O)c2cnc(N)nc21 | < 2000 nM
Cn1nc(-c2ccc(N)c(F)c2)c2cnc(N)nc21 | < 2000 nM
COc1ncc(-c2nn(C)c3nc(N)ncc23)cn1 | < 2000 nM
COc1ccc(-c2nn(C)c3nc(N)ncc23)cn1 | < 2000 nM
Cn1nc(-c2ccc(F)c(F)c2F)c2cnc(N)nc21 | < 2000 nM
CNS(=O)(=O)c1cccc(-c2nn(C)c3nc(N)ncc23)c1 | < 2000 nM
CC(C)Cc1ccc(-c2nn(C)c3nc(N)ncc23)cc1 | < 2000 nM
Cn1nc(-c2cc(F)c(O)c(Br)c2)c2cnc(N)nc21 | < 2000 nM
Cn1nc(-c2cc(F)c(F)c(F)c2)c2cnc(N)nc21 | < 2000 nM
COc1ccc(-c2nn(C)c3nc(N)ncc23)cc1F | < 2000 nM
Cn1nc(-c2cc(F)c(OCCN3CCCC3)c(Br)c2)c2cnc(N)nc21 | < 2000 nM
COc1ccc(OC)c(-c2nn(C)c3nc(N)ncc23)c1 | < 2000 nM
Cn1nc(-c2cc(F)ccc2O)c2cnc(N)nc21 | < 2000 nM
Cn1nc(-c2cc(Cl)c(OC(F)(F)F)c(Br)c2O)c2cnc(N)nc21 | < 2000 nM
Cn1nc(-c2cnc(N3CCNCC3)nc2)c2cnc(N)nc21 | < 2000 nM
Cn1nc(-c2cncc(C(F)(F)F)c2)c2cnc(N)nc21 | < 2000 nM
Cn1nc(-c2cc(F)c(O)c(C=O)c2)c2cnc(N)nc21 | < 2000 nM
Cn1nc(-c2cccc(C#N)c2)c2cnc(N)nc21 | < 2000 nM
Cc1[nH]c2ccc(-c3nn(C)c4nc(N)ncc34)cc2c1C | < 2000 nM
Cn1nc(-c2cc(O)cc(F)c2)c2cnc(N)nc21 | < 2000 nM
Cn1nc(-c2ccc(O)cc2O)c2cnc(N)nc21 | < 2000 nM
COc1ccc(-c2nn(C)c3nc(N)nc(NCc4ccccc4)c23)cc1F | < 2000 nM
COc1ncc(-c2nn(C)c3nc(N)ncc23)cc1F | < 2000 nM
CC(C)Oc1ccc(-c2nn(C)c3nc(N)ncc23)cc1F | < 2000 nM

Structure (SMILES) | IC50
Cn1nc(-c2cc(F)ccc2OCCO)c2cnc(N)nc21 | < 2000 nM
COc1ncc(-c2nn(C)c3nc(N)ncc23)c(OC)n1 | < 2000 nM
Cn1nc(-c2cccc(NS(C)(=O)=O)c2)c2cnc(N)nc21 | < 2000 nM
Cn1nc(-c2ccc3cc[nH]c3c2)c2cnc(N)nc21 | < 2000 nM
Cn1nc(-c2ccc(O)cc2)c2cnc(N)nc21 | < 2000 nM
Cn1nc(-c2cccc(C(F)(F)F)c2)c2cnc(N)nc21 | < 2000 nM
Cn1nc(-c2ccc(O)c(C(F)(F)F)c2)c2cnc(N)nc21 | < 2000 nM
Cn1nc(-c2ccc3ccoc3c2)c2cnc(N)nc21 | < 2000 nM
COc1c(F)cc(-c2nn(C)c3nc(N)ncc23)cc1NC(C)=O | < 2000 nM
Cn1nc(-c2cnc(N)c(C(F)(F)F)c2)c2cnc(N)nc21 | < 2000 nM
Cn1nc(-c2ccc(Cl)c(Cl)c2)c2cnc(N)nc21 | < 2000 nM
Cc1ccc(-c2nn(C)c3nc(N)ncc23)cc1[N+](=O)[O-] | < 2000 nM
Cn1nc(-c2ccc(OCCO)c(F)c2)c2cnc(N)nc21 | < 2000 nM
COc1cc(OC)c(S(=O)(=O)NC(C)C)cc1-c1nn(C)c2nc(N)ncc12 | < 2000 nM
COc1cc(OC(F)(F)F)c(Cl)cc1-c1nn(C)c2nc(N)ncc12 | < 2000 nM
Cn1nc(-c2cccc(F)c2O)c2cnc(N)nc21 | < 2000 nM
COc1c(Cl)cc(C(F)(F)F)cc1-c1nn(C)c2nc(N)ncc12 | < 2000 nM
Cn1nc(-c2ccnc(Cl)c2)c2cnc(N)nc21 | < 2000 nM
COc1ccc(Cl)cc1-c1nn(C)c2nc(N)ncc12 | < 2000 nM
CNC(=O)c1cccc(-c2nn(C)c3nc(N)ncc23)c1 | < 2000 nM
CC(=O)c1ccc(-c2nn(C)c3nc(N)ncc23)cc1 | < 2000 nM
Cn1nc(-c2cccc(S(C)(=O)=O)c2)c2cnc(N)nc21 | < 2000 nM
Cn1nc(-c2cc(F)c(OCCO)c(Br)c2)c2cnc(N)nc21 | < 2000 nM
Cn1nc(-c2cc(Cl)c(O)c(Cl)c2)c2cnc(N)nc21 | < 2000 nM
COc1ccc(C(F)(F)F)cc1-c1nn(C)c2nc(N)ncc12 | < 2000 nM
COc1ccc(C(=O)NC(C)C)cc1-c1nn(C)c2nc(N)ncc12 | < 2000 nM

Structure (SMILES) | IC50
CCOc1ccc2ccccc2c1-c1nn(C)c2nc(N)ncc12 | < 2000 nM
COc1ccc(CO)cc1-c1nn(C)c2nc(N)ncc12 | < 2000 nM
COc1cc(F)ccc1-c1nn(C)c2nc(N)ncc12 | < 2000 nM
Cn1nc(-c2ccc(OCCN3CCOCC3)c(F)c2)c2cnc(N)nc21 | < 2000 nM
COc1cc(OC)c(-c2nn(C)c3nc(N)ncc23)cc1Cl | < 2000 nM
Cn1nc(-c2cccc3cccnc23)c2cnc(N)nc21 | < 2000 nM
Cn1nc(-c2ccco2)c2cnc(N)nc21 | < 2000 nM
Cc1noc(C)c1-c1nn(C)c2nc(N)ncc12 | < 2000 nM
COc1ccc(-c2nn(C)c3nc(N)ncc23)c(OC)c1 | < 2000 nM
Cn1nc(-c2cc(Br)c(O)c(Br)c2)c2cnc(N)nc21 | < 2000 nM
Cn1nc(-c2ccc(O)c(F)c2)c2cnc(N)nc21 | < 2000 nM
Cn1nc(-c2cc(F)c(C=O)c(F)c2)c2cnc(N)nc21 | < 2000 nM
Cn1nc(-c2cncc(S(C)(=O)=O)c2)c2cnc(N)nc21 | < 2000 nM
Cn1nc(-c2cccc(F)c2)c2cnc(N)nc21 | < 2000 nM
CC(C)CNC(=O)c1cccc(-c2nn(C)c3nc(N)ncc23)c1 | < 2000 nM
COc1c(F)cc(-c2nn(C)c3nc(N)ncc23)cc1F | < 2000 nM
COc1ccc(C=O)cc1-c1nn(C)c2nc(N)ncc12 | < 2000 nM
Cn1nc(-c2cc(Cl)c(O)c(Cl)c2)c2c(NCCN3CCOCC3)nc(N)nc21 | < 2000 nM
COc1cc(-c2nn(C)c3nc(N)ncc23)cc(Cl)c1O | < 2000 nM
Cn1nc(-c2ccncc2)c2cnc(N)nc21 | < 2000 nM
CC(C)Oc1ccc(-c2nn(C)c3nc(N)ncc23)cc1Cl | < 2000 nM
CC(=O)c1cccc(-c2nn(C)c3nc(N)ncc23)c1F | < 2000 nM
Cn1nc(-c2ccc(OCCN3CCCC3)c(F)c2)c2cnc(N)nc21 | < 2000 nM
Cn1nc(-c2cc(F)c3[nH]ccc3c2)c2cnc(N)nc21 | < 2000 nM
Cn1nc(-c2cc(F)cc(Br)c2)c2cnc(N)nc21 | < 2000 nM
Cn1nc(-c2ccc(OC(F)(F)F)cc2O)c2cnc(N)nc21 | < 2000 nM

Structure (SMILES) | IC50
Cn1nc(-c2ccc(NS(C)(=O)=O)c(F)c2)c2cnc(N)nc21 | < 2000 nM
Cn1nc(-c2ccc3c(c2)OCO3)c2cnc(N)nc21 | < 2000 nM
Cn1nc(-c2ccc(OCCCO)c(F)c2)c2cnc(N)nc21 | < 2000 nM
Cn1nc(-c2ccc(OCCCN3CCOCC3)c(F)c2)c2cnc(N)nc21 | < 2000 nM
Cn1nc(-c2cccc(C=O)c2)c2cnc(N)nc21 | < 2000 nM
CC(=O)c1ccc(-c2nn(C)c3nc(N)ncc23)s1 | < 2000 nM
COc1cc(OC(F)(F)F)ccc1-c1nn(C)c2nc(N)ncc12 | < 2000 nM
CCOc1ccc(-c2nn(C)c3nc(N)ncc23)cc1F | < 2000 nM
COc1cc(-c2nn(C)c3nc(N)ncc23)cc(OC)c1OC | < 2000 nM
COc1cc(OC)c(S(=O)(=O)O)cc1-c1nn(C)c2nc(N)ncc12 | < 2000 nM
COCCOc1c(F)cc(-c2nn(C)c3nc(N)ncc23)cc1Br | < 2000 nM
Cn1nc(-c2cc(F)c(O)c(C#N)c2)c2cnc(N)nc21 | < 2000 nM
COc1cc(-c2nn(C)c3nc(N)ncc23)ccn1 | < 2000 nM
COc1ccc(NCCCN(C)C)cc1-c1nn(C)c2nc(N)ncc12 | < 2000 nM
CCN(CC)S(=O)(=O)c1cc(-c2nn(C)c3nc(N)ncc23)ccc1O | < 2000 nM
Cn1nc(-c2cc(F)c(O)c(F)c2)c2cnc(N)nc21 | < 2000 nM
Cn1nc(-c2ccc(Cl)s2)c2cnc(N)nc21 | < 2000 nM
CNS(=O)(=O)c1cc(-c2nn(C)c3nc(N)ncc23)ccc1Cl | < 2000 nM
COc1ccc(-c2nn(C)c3nc(N)ncc23)cc1 | < 2000 nM
Cn1nc(-c2cc(C(F)(F)F)cc(Cl)c2O)c2cnc(N)nc21 | < 2000 nM
Cn1nc(-c2cc(F)cc(F)c2)c2cnc(N)nc21 | < 2000 nM
Cn1nc(-c2ccc(OCC#N)c(F)c2)c2cnc(N)nc21 | < 2000 nM
CC(C)NC(=O)c1cccc(-c2nn(C)c3nc(N)ncc23)c1 | < 2000 nM
CNc1ncc2c(-c3ccc(OC)c(F)c3)nn(C)c2n1 | < 2000 nM
COc1ccc(-c2nn(C)c3nc(N)ncc23)cc1Br | < 2000 nM
Cn1nc(-c2cccnc2)c2cnc(N)nc21 | < 2000 nM

Structure (SMILES) | IC50
Cn1nc(-c2cc(F)c(C(=O)O)c(F)c2)c2cnc(N)nc21 | < 2000 nM
Cc1cccc(-c2nn(C)c3nc(N)ncc23)c1 | < 2000 nM
Cn1nc(-c2cc(F)c(C#N)c(F)c2)c2cnc(N)nc21 | < 2000 nM
COCCOc1ccc(-c2nn(C)c3nc(N)ncc23)cc1F | < 2000 nM
Cn1nc(-c2ccc(OCCn3ccnc3)c(F)c2)c2cnc(N)nc21 | < 2000 nM
Cn1nc(-c2cc(Cl)c(O)c(C(F)(F)F)c2)c2cnc(N)nc21 | < 2000 nM
COc1ccc(F)cc1-c1nn(C)c2nc(N)ncc12 | < 2000 nM
COc1ccc(-c2nn(C)c3nc(N)ncc23)cc1Cl | < 2000 nM
CC(=O)c1cccc(-c2nn(C)c3nc(N)ncc23)c1 | < 2000 nM
CN1CCN(CCCOc2ccc(-c3nn(C)c4nc(N)ncc34)cc2F)CC1 | < 2000 nM
Cn1nc(-c2ccc(F)c(F)c2)c2cnc(N)nc21 | < 2000 nM
Cn1nc(-c2ccc(C#N)cc2)c2cnc(N)nc21 | < 2000 nM
COc1cccc(OC)c1-c1nn(C)c2nc(N)ncc12 | < 2000 nM
Cn1nc(-c2cc(Cl)ccc2O)c2cnc(N)nc21 | < 2000 nM
Cn1nc(-c2cc(C=O)ccc2O)c2cnc(N)nc21 | < 2000 nM
Cn1nc(-c2cc(F)c(O)c(Cl)c2)c2cnc(N)nc21 | < 2000 nM
Cn1nc(-c2cc(Cl)cc(Br)c2O)c2cnc(N)nc21 | < 2000 nM
Cn1nc(-c2ccc(Cl)c(NS(C)(=O)=O)c2)c2cnc(N)nc21 | < 2000 nM
Cn1nc(-c2ccc(F)c(Cl)c2)c2cnc(N)nc21 | < 2000 nM
Cn1nc(-c2cc(Cl)c(O)c(Br)c2O)c2cnc(N)nc21 | < 2000 nM
CCCOc1cc(F)ccc1-c1nn(C)c2nc(N)ncc12 | < 2000 nM
CN(C)C(=O)c1cc(-c2nn(C)c3nc(N)ncc23)cc(F)c1OCc1ccccc1 | < 2000 nM
